Test results published in US12138256B2, “Treatment of cardiopulmonary disorders” (Bayer Aktiengesellschaft, priority 2021, dated 2024).

Tested on: sGC (cGMP)
Experiment: Phase I, healthy male subjects, 7 days once daily inhalation: cGMP in blood samples (C-4.1)
Type: in vivo, human
Experimental: Healthy White male subjects, aged 18 to 45 years and with a body mass index (BMI) above/equal 18.5 and below/equal 29.9 kg/m2 were treated in a clinical pharmacological phase I study on seven days with inhaled once daily doses of 480 μg or 1000 μg or 2000 μg (2 capsules of 1000 μg) (nominal dose) of dry powder formulations of example 2 or Placebo. The subjects inhaled the drug powder from capsules (see under D-1, e.g. tables 22 and 23) inserted into a handheld inhalation device by one deep inhalative breath. The dry powder formulation of the drug is dispersed into the airstream and fine particles are transported into the deep parts of the lung where it is intended to cause a vasodilation of the blood vessels in PH patients for a substantial reduction of increased blood pressure in the central pulmonary blood vessels in PAH patients or other subtypes of PH. This effect cannot be shown in subjects with healthy lungs. In addition inhaled drug causes a dilation of the bronchial airways and thus also improves disease states of lung diseases in PH patients with pathological bronchoconstriction. This effect was measured via bodyplethysmography as reduction of Specific Airway Resistance in healthy subjects. After the deep inhalative breath the subjects hold breath for 2 seconds, so that the dry powder drug condenses from the airstream onto the surface of the deeper lung areas where it is deposited close to its site of intended pharmacological action. The drug dissolutes over the day and equilibrates the lung via lining fluid.
Drug activity in healthy men was controlled in the healthy subjects by analysing blood samples for cGMP, the immediate product of sGC pharmacological activation prior after the first and after the last drug inhalation of the 7 days treatment in comparison to measurements on the pretreatment day for all doses.
This prolonged activity in comparison to systemic drug concentration is caused by the mode of administration as inhaled dry powder, that deposits drug in the deeper part of the lung leading to an active drug concentration over 24 h after a once daily inhalation.
At 10 days after the first treatment, mean cGMP concentrations had returned close to the concentration observed at the pre-dosing day.

O=C(O)c1ccc(CCN(CCc2ccccc2OCc2ccc(-c3ccc(C(F)(F)F)cc3)cc2Cl)[C@H]2CCCc3nc(C(=O)O)ccc32)cc1 [example 2, (5S)-{[2-(4-Carboxyphenyl)ethyl][2-(2-{[3-chloro-4′-(trifluoromethyl)biphenyl-4-yl]methoxy}phenyl)-ethyl]amino}-5,6,7,8-tetrahydroquinoline-2-carboxylic acid]
cyclic guanosine monophosphate changes from baseline (480 μg once daily inhaled, 0 D 02 H 00 M): 1.73 ± 0.82 nmol/L
cyclic guanosine monophosphate changes from baseline (480 μg once daily inhaled, 0 D 04 H 00 M): 3.04 ± 1.39 nmol/L
cyclic guanosine monophosphate changes from baseline (480 μg once daily inhaled, 0 D 06 H 00 M): 3.33 ± 1.39 nmol/L
cyclic guanosine monophosphate changes from baseline (480 μg once daily inhaled, 0 D 08 H 00 M): 2.94 ± 1.38 nmol/L
cyclic guanosine monophosphate changes from baseline (480 μg once daily inhaled, 0 D 12 H 00 M): 2.10 ± 1.18 nmol/L
cyclic guanosine monophosphate changes from baseline (480 μg once daily inhaled, 0 D 15 H 00 M): 1.53 ± 1.50 nmol/L
cyclic guanosine monophosphate changes from baseline (480 μg once daily inhaled, 1 D 00 H 00 M): 0.84 ± 0.89 nmol/L
cyclic guanosine monophosphate changes from baseline (480 μg once daily inhaled, 2 D 00 H 00 M): 0.74 ± 1.59 nmol/L
cyclic guanosine monophosphate changes from baseline (480 μg once daily inhaled, 3 D 00 H 00 M): 1.00 ± 1.92 nmol/L
cyclic guanosine monophosphate changes from baseline (480 μg once daily inhaled, 4 D 00 H 00 M): 1.46 ± 1.24 nmol/L
cyclic guanosine monophosphate changes from baseline (480 μg once daily inhaled, 5 D 00 H 00 M): 1.50 ± 0.98 nmol/L
cyclic guanosine monophosphate changes from baseline (480 μg once daily inhaled, 6 D 00 H 00 M): 1.92 ± 1.21 nmol/L
cyclic guanosine monophosphate changes from baseline (480 μg once daily inhaled, 7 D 00 H 00 M): 1.68 ± 0.85 nmol/L
cyclic guanosine monophosphate changes from baseline (480 μg once daily inhaled, 7 D 02 H 00 M): 4.22 ± 2.29 nmol/L
cyclic guanosine monophosphate changes from baseline (480 μg once daily inhaled, 7 D 04 H 00 M): 5.39 ± 2.34 nmol/L
cyclic guanosine monophosphate changes from baseline (480 μg once daily inhaled, 7 D 06 H 00 M): 6.44 ± 2.26 nmol/L
cyclic guanosine monophosphate changes from baseline (480 μg once daily inhaled, 7 D 08 H 00 M): 5.19 ± 1.64 nmol/L
cyclic guanosine monophosphate changes from baseline (480 μg once daily inhaled, 7 D 12 H 00 M): 3.71 ± 1.79 nmol/L
cyclic guanosine monophosphate changes from baseline (480 μg once daily inhaled, 7 D 15 H 00 M): 3.04 ± 2.09 nmol/L
cyclic guanosine monophosphate changes from baseline (480 μg once daily inhaled, 8 D 00 H 00 M): 1.69 ± 2.65 nmol/L
cyclic guanosine monophosphate changes from baseline (480 μg once daily inhaled, 8 D 12 H 00 M): 0.69 ± 1.53 nmol/L
cyclic guanosine monophosphate changes from baseline (480 μg once daily inhaled, 9 D 00 H 00 M): 0.13 ± 1.97 nmol/L
cyclic guanosine monophosphate changes from baseline (480 μg once daily inhaled, 9 D 12 H 00 M): 1.10 ± 1.01 nmol/L
cyclic guanosine monophosphate changes from baseline (480 μg once daily inhaled, 10 D 00 H 00 M): -0.00 ± 0.64 nmol/L
cyclic guanosine monophosphate changes from baseline (480 μg, 0 D 00 H 00 M): 0.11 ± 1.10 nmol/L
cGMP, mean ± SD (480 μg, 0 D 00 H 00 M (baseline)): 5.51 ± 1.00 nmol/L
cGMP, mean ± SD (480 μg, 0 D 02 H 00 M): 7.24 ± 1.25 nmol/L
cGMP, mean ± SD (480 μg, 0 D 04 H 00 M): 8.56 ± 1.45 nmol/L
cGMP, mean ± SD (480 μg, 0 D 06 H 00 M): 8.84 ± 1.35 nmol/L
cGMP, mean ± SD (480 μg, 0 D 08 H 00 M): 8.46 ± 1.59 nmol/L
cGMP, mean ± SD (480 μg, 0 D 12 H 00 M): 7.61 ± 1.01 nmol/L
cGMP, mean ± SD (480 μg, 0 D 15 H 00 M): 7.04 ± 1.50 nmol/L
cGMP, mean ± SD (480 μg, 1 D 00 H 00 M): 6.36 ± 1.10 nmol/L
cGMP, mean ± SD (480 μg, 2 D 00 H 00 M): 6.26 ± 2.17 nmol/L
cGMP, mean ± SD (480 μg, 3 D 00 H 00 M (trough)): 6.51 ± 2.62 nmol/L
cGMP, mean ± SD (480 μg, 4 D 00 H 00 M (trough)): 6.97 ± 1.96 nmol/L
cGMP, mean ± SD (480 μg, 5 D 00 H 00 M (trough)): 7.01 ± 1.72 nmol/L
cGMP, mean ± SD (480 μg, 6 D 00 H 00 M (trough)): 7.43 ± 1.69 nmol/L
cGMP, mean ± SD (480 μg, 7 D 00 H 00 M (trough)): 7.19 ± 1.47 nmol/L
cGMP, mean ± SD (480 μg, 7 D 02 H 00 M): 9.73 ± 3.00 nmol/L
cGMP, mean ± SD (480 μg, 7 D 04 H 00 M): 10.90 ± 3.12 nmol/L
cGMP, mean ± SD (480 μg, 7 D 06 H 00 M): 11.96 ± 2.80 nmol/L
cGMP, mean ± SD (480 μg, 7 D 08 H 00 M): 10.70 ± 2.27 nmol/L
cGMP, mean ± SD (480 μg, 7 D 12 H 00 M): 9.22 ± 2.37 nmol/L
cGMP, mean ± SD (480 μg, 7 D 15 H 00 M): 8.56 ± 2.80 nmol/L
cGMP, mean ± SD (480 μg, 8 D 00 H 00 M): 7.20 ± 3.23 nmol/L
cGMP, mean ± SD (480 μg, 8 D 12 H 00 M): 6.20 ± 2.00 nmol/L
cGMP, mean ± SD (480 μg, 9 D 00 H 00 M): 5.64 ± 2.53 nmol/L
cGMP, mean ± SD (480 μg, 9 D 12 H 00 M): 6.61 ± 1.80 nmol/L
cGMP, mean ± SD (480 μg, 10 D 00 H 00 M): 5.51 ± 1.39 nmol/L
cGMP, mean ± SD (480 μg, −0 D 09 H 00 M (baseline)): 5.60 ± 1.08 nmol/L
cyclic guanosine monophosphate changes from baseline (480 μg, −0 D 09 H 00 M (pretreatment day)): 0.20 ± 1.59 nmol/L
cGMP, mean ± SD (480 μg, −0 D 12 H 00 M (baseline)): 5.62 ± 1.26 nmol/L
cyclic guanosine monophosphate changes from baseline (480 μg, −0 D 12 H 00 M (pretreatment day)): 0.22 ± 1.17 nmol/L
cGMP, mean ± SD (480 μg, −0 D 16 H 00 M (baseline)): 5.81 ± 1.09 nmol/L
cyclic guanosine monophosphate changes from baseline (480 μg, −0 D 16 H 00 M (pretreatment day)): 0.41 ± 0.96 nmol/L
cGMP, mean ± SD (480 μg, −0 D 18 H 00 M (baseline)): 5.61 ± 0.71 nmol/L
cyclic guanosine monophosphate changes from baseline (480 μg, −0 D 18 H 00 M (pretreatment day)): 0.21 ± 1.74 nmol/L
cGMP, mean ± SD (480 μg, −0 D 20 H 00 M (baseline)): 5.92 ± 0.83 nmol/L
cyclic guanosine monophosphate changes from baseline (480 μg, −0 D 20 H 00 M (pretreatment day)): 0.52 ± 0.95 nmol/L
cGMP, mean ± SD (480 μg, −0 D 22 H 00 M (baseline)): 6.57 ± 1.22 nmol/L
cyclic guanosine monophosphate changes from baseline (480 μg, −0 D 22 H 00 M (pretreatment day)): 1.17 ± 1.00 nmol/L
cGMP, mean ± SD (480 μg, −1 D 02 H 00 M (baseline)): 5.40 ± 1.41 nmol/L
cyclic guanosine monophosphate changes from baseline (1000 μg once daily inhaled, 0 D 02 H 00 M): 3.26 ± 2.04 nmol/L
cyclic guanosine monophosphate changes from baseline (1000 μg once daily inhaled, 0 D 04 H 00 M): 5.64 ± 2.54 nmol/L
cyclic guanosine monophosphate changes from baseline (1000 μg once daily inhaled, 0 D 06 H 00 M): 6.78 ± 2.79 nmol/L
cyclic guanosine monophosphate changes from baseline (1000 μg once daily inhaled, 0 D 08 H 00 M): 5.94 ± 2.65 nmol/L
cyclic guanosine monophosphate changes from baseline (1000 μg once daily inhaled, 0 D 12 H 00 M): 4.86 ± 2.91 nmol/L
cyclic guanosine monophosphate changes from baseline (1000 μg once daily inhaled, 0 D 15 H 00 M): 3.70 ± 2.59 nmol/L
cyclic guanosine monophosphate changes from baseline (1000 μg once daily inhaled, 1 D 00 H 00 M): 1.26 ± 1.98 nmol/L
cyclic guanosine monophosphate changes from baseline (1000 μg once daily inhaled, 2 D 00 H 00 M): 0.33 ± 1.99 nmol/L
cyclic guanosine monophosphate changes from baseline (1000 μg once daily inhaled, 3 D 00 H 00 M): 2.31 ± 2.68 nmol/L
cyclic guanosine monophosphate changes from baseline (1000 μg once daily inhaled, 4 D 00 H 00 M): 2.86 ± 2.63 nmol/L
cyclic guanosine monophosphate changes from baseline (1000 μg once daily inhaled, 5 D 00 H 00 M): 3.59 ± 2.51 nmol/L
cyclic guanosine monophosphate changes from baseline (1000 μg once daily inhaled, 6 D 00 H 00 M): 4.32 ± 2.82 nmol/L
cyclic guanosine monophosphate changes from baseline (1000 μg once daily inhaled, 7 D 00 H 00 M): 4.74 ± 2.98 nmol/L
cyclic guanosine monophosphate changes from baseline (1000 μg once daily inhaled, 7 D 02 H 00 M): 6.93 ± 2.99 nmol/L
cyclic guanosine monophosphate changes from baseline (1000 μg once daily inhaled, 7 D 04 H 00 M): 10.84 ± 2.91 nmol/L
cyclic guanosine monophosphate changes from baseline (1000 μg once daily inhaled, 7 D 06 H 00 M): 11.79 ± 3.70 nmol/L
cyclic guanosine monophosphate changes from baseline (1000 μg once daily inhaled, 7 D 08 H 00 M): 11.00 ± 4.58 nmol/L
cyclic guanosine monophosphate changes from baseline (1000 μg once daily inhaled, 7 D 12 H 00 M): 9.19 ± 5.26 nmol/L
cyclic guanosine monophosphate changes from baseline (1000 μg once daily inhaled, 7 D 15 H 00 M): 8.00 ± 4.41 nmol/L
cyclic guanosine monophosphate changes from baseline (1000 μg once daily inhaled, 8 D 00 H 00 M): 4.47 ± 3.81 nmol/L
cyclic guanosine monophosphate changes from baseline (1000 μg once daily inhaled, 8 D 12 H 00 M): 2.30 ± 3.05 nmol/L
cyclic guanosine monophosphate changes from baseline (1000 μg once daily inhaled, 9 D 00 H 00 M): 1.38 ± 2.59 nmol/L
cyclic guanosine monophosphate changes from baseline (1000 μg once daily inhaled, 9 D 12 H 00 M): 1.02 ± 2.24 nmol/L
cyclic guanosine monophosphate changes from baseline (1000 μg once daily inhaled, 10 D 00 H 00 M): 1.42 ± 2.87 nmol/L
cyclic guanosine monophosphate changes from baseline (1000 μg, 0 D 00 H 00 M): -0.11 ± 1.62 nmol/L
cGMP, mean ± SD (1000 μg, 0 D 00 H 00 M (baseline)): 4.91 ± 1.27 nmol/L
cGMP, mean ± SD (1000 μg, 0 D 02 H 00 M): 8.17 ± 1.07 nmol/L
cGMP, mean ± SD (1000 μg, 0 D 04 H 00 M): 10.56 ± 1.47 nmol/L
cGMP, mean ± SD (1000 μg, 0 D 06 H 00 M): 11.69 ± 1.86 nmol/L
cGMP, mean ± SD (1000 μg, 0 D 08 H 00 M): 10.86 ± 1.66 nmol/L
cGMP, mean ± SD (1000 μg, 0 D 12 H 00 M): 9.77 ± 2.11 nmol/L
cGMP, mean ± SD (1000 μg, 0 D 15 H 00 M): 8.61 ± 1.63 nmol/L
cGMP, mean ± SD (1000 μg, 1 D 00 H 00 M): 6.17 ± 1.05 nmol/L
cGMP, mean ± SD (1000 μg, 2 D 00 H 00 M): 5.24 ± 1.28 nmol/L
cGMP, mean ± SD (1000 μg, 3 D 00 H 00 M (trough)): 7.22 ± 2.04 nmol/L
cGMP, mean ± SD (1000 μg, 4 D 00 H 00 M (trough)): 7.77 ± 1.87 nmol/L
